Experimental data: US3931407A, “Method of treatment with and compositions containing condensed pyrroles bearing an N-phenyl substituent” (American Hoechst Corporation, priority 1974, dated 1976)
Where two headings read alike, the source gives them in different places.

Assays:
[1] = test system: edema induced by carrageenin in rat paws; assay: Carrageenin paw edema in rats; format: in vivo; details: read-out: Carrageenin paw edema-rats ED50
[2] = test system: adjuvant-induced arthritis in rats; assay: Adjuvant-induced arthritis in rats; format: in vivo; details: Rattus norvegicus, 504 h; for inhibition in vivo at 10 mg/kg: 10 mg/kg/day; for inhibition in vivo at 10 mg/kg / inhibition in vivo at 25 mg/kg / inhibition in vivo at 50 mg/kg / inhibition in vivo at 100 mg/kg: rats, day 21; for inhibition in vivo at 25 mg/kg: 25 mg/kg/day; for inhibition in vivo at 50 mg/kg: 50 mg/kg/day; for inhibition in vivo at 100 mg/kg: 100 mg/kg/day
[3] = test system: writhing induced in mice by 2-phenyl-1,4-benzoquinone; assay: Phenylquinone (2-phenyl-1,4-benzoquinone) writhing in mice, analgesic activity; format: in vivo; details: Mus musculus, read-out: Phenylquinone writhing-mice ED50
Source text: Exp. Biol. Med., 95, 729 (1957)]. The activity of several representative compounds of the present invention and of aspirin and phenylbutazone is expressed as ED50, the dose (mg/kg) of compound producing a 50% reduction in the number of writhes as compared to non-treated 2-phenyl-1,4-benzoquinone dosed controls.

[4] = test system: yeast-induced pyrexia in rats; assay: Antipyretic assay, yeast-induced pyrexia in rats; format: in vivo, female Charles River or Wistar rats; details: Rattus norvegicus; dose producing ≥ 1° reduction in rectal temperature in 50 percent of fevered rats; oral; 2 hours past drug
Method: A common property of useful anti-inflammatory agents is their ability to lower elevated body temperatures. […] Groups of ten female Charles River or Wistar rats (120-150 gm) are injected with a 20% water suspension of "Brewers Yeast" subcutaneously into the nape of the neck (10 ml/kg). The animals are starved (water ad lib.) and 18 hours later rectal temperatures are monitored (Tele-Thermometer, Yellow Springs Instrument Co., Inc., Yellow Springs, Ohio). Animals with a temperature ≥ 37.2°C. are considered fevered. Drugs are administered orally (10 ml/kg) using distilled water and, if insoluble, one drop of a dispersing agent, e.g. "Tween 80," per 10 ml. Temperatures are recorded 2 hours past drug. Significant activity is a reduction in rectal temperature ≥ 1° from the mean control temperature. The activity of the compounds tested is expressed as ED50, the dose (mg/kg) of a compound producing a reduction of ≥ 1° in rectal temperature of fevered rats from the mean fevered control temperature in 50 percent of the animals.

in vivo = details: rat, po
Method: A common but undesirable side effect of anti-inflammatory agents is the production of gastric irritation in mammals. […] Groups of male or female rats (Wistar, Long Evans or Charles River), 150-180 gm, are utilized for this assay using 10 animals per dose group. The animals are starved for 48 hours (H2 O ad lib) prior to administration of drug orally at 10 ml/kg. Drugs are prepared using distilled water solutions or, if insoluble, 1 drop of a dispersing agent, e.g. "Tween 80"/10 ml, is used with homogenization. The control group receives the vehicle only (10 ml/kg). […] Stomachs are removed and examined for gastric irritation, which is defined as ulceration and/or hemorrhage of gastric mucosa. The presence of a single ulcer or hemorrhage spot is taken as positive and stomachs must be "clean" to be negative. A dose response is run at the peak time using at least four dose levels of test drug. In the table, gastric irritability is expressed as ID50, the dose (mg/kg) of compound producing irritation in 50 percent of the animals after seven hours.

[5] = dose producing 50% reduction in edema vs non-treated controls, rats
[6] = read-out: % Inhibition of Edema on Day 21, Adjuvant Injected Paw
[7] = read-out: % Inhibition of Edema on Day 21, Non-Injected Paw
[8] = dose producing 50% reduction in number of writhes vs non-treated controls, mice

Structure (SMILES)	ED50 [1, 5]	inhibition in vivo at 10 mg/kg [2, 6]	inhibition in vivo at 10 mg/kg [2, 7]	inhibition in vivo at 25 mg/kg [2, 6]	inhibition in vivo at 25 mg/kg [2, 7]	inhibition in vivo at 50 mg/kg [2, 6]	inhibition in vivo at 50 mg/kg [2, 7]	ED50 [3, 8]	ED50 [4]	TD50 at 7 h (in vivo)	inhibition in vivo at 100 mg/kg [2, 6]	inhibition in vivo at 100 mg/kg [2, 7]	ED50 [1]	ED50 [3]	TD50 at 7 h (in vivo; in vivo)	inhibition in vivo at 200 mg/kg [2, 6]	inhibition in vivo at 200 mg/kg [2, 7]
O=C(O)c1cc(-n2c(-c3ccccc3)cc3c2CCCC3)ccc1S [1-(3-Carboxy-4-mercaptophenyl)-2-phenyl-4,5,6,7-tetrahydroindole]	140 mg/kg	23%	23%	43%	57%	67%	80%										
O=C(O)c1cc(-n2c(-c3ccccc3)cc3c2CCc2ccccc2-3)ccc1O [3-(3-Carboxy-4-hydroxyphenyl)-4,5-dihydro-2-phenylbenz[e]indole]	63 mg/kg	27%	29%	49%	72%	69%	81%	10 mg/kg	69 mg/kg	300 to 350 mg/kg							
CCCCC1C(=O)N(c2ccccc2)N(c2ccccc2)C1=O [Phenylbutazone, reference compound]	83 mg/kg					60%	71%	89 mg/kg	< 50 mg/kg	75 mg/kg							
O=C(O)c1cc(-n2c(-c3ccccc3)cc3c2CCC3)ccc1O [1-(3-Carboxy-4-hydroxyphenyl)-2-phenyl-1,4,5,6-tetrahydrocyclopenta[b]pyrrole]	110 mg/kg							10 mg/kg	< 50 mg/kg	125 mg/kg	57%	75%					
O=C(O)c1cc(-n2c(-c3ccccc3)cc3c4ccccc4ccc32)ccc1O [3-(3-Carboxy-4-hydroxyphenyl)-2-phenylbenz[e]indole]	90 mg/kg			45%	50%	70%	70%	16.5 mg/kg	> 100 mg/kg	> 200 mg/kg							
CC(=O)Oc1ccccc1C(=O)O [Aspirin, reference compound]									35 mg/kg				130 to 140 mg/kg	53 mg/kg	42 mg/kg	37%	47%
CC(=O)Oc1ccc(-n2c(-c3ccccc3)cc3c2CCc2ccccc2-3)cc1C(=O)O [3-(4-Acetoxy-3-carboxyphenyl)-4,5-dihydro-2-phenylbenz[e]indole]	70 mg/kg					56%	68%	16.5 mg/kg		> 300 mg/kg	82%	93%					
O=C(O)c1cc(-n2c(-c3ccc(F)cc3)cc3c2CCCC3)ccc1O [1-(3-Carboxy-4-hydroxyphenyl)-2-(4-fluorophenyl)-4,5,6,7-tetrahydroindole]	88 mg/kg										56%	64%					
O=C(O)c1cc(-n2c(-c3ccccc3)cc3c2CCCCC3)ccc1O [1-(3-Carboxy-4-hydroxyphenyl)-1,4,5,6,7,8-hexahydro-2-phenylcyclohepta[b]pyrrole]	125 mg/kg							10 mg/kg	100 mg/kg	> 200 mg/kg	75%	90%					
O=C(O)c1cc(-n2c(-c3ccccc3)cc3c2CCCC3)ccc1O [1-(3-Carboxy-4-hydroxyphenyl)-2-phenyl-4,5,6,7-tetrahydroindole]	87 mg/kg					38%	72%	17 mg/kg	41 mg/kg	130 mg/kg	65%	80%					
